Where only a bound is given, the exact number is not on record here.

In one experiment the target is human TREX1 (Homo sapiens (Human), UniProt Q9NSU2). Description: TREX1 Exonuclease Assay (human enzyme). The following applies: human TREX1 0.5 nM, FAM/BHQ1-labeled DNA oligonucleotide. The class given is biochemical. On the procedure: (§1) The TREX1 Exonuclease assay is an exemplary in vitro assay for measuring the activity of the TREX1 inhibitors of the present invention. In this assay, TREX1 exonuclease activity was evaluated by measuring the increase in fluorescence resulting from TREX1-catalyzed removal of a quencher from the 3′ end of a FAM-labeled DNA oligonucleotide (5′FAM-CCA CGA GAG CGT-BHQ1-3′). The assay was conducted using Wild Type (WT) human or murine TREX1 enzyme constructs corresponding to amino acids 55-297 of UniProt ID Q9NSU2-1 (SEQ ID NO: 1), or amino acids 1-242 of UniProt ID Q91XB0-1 (SEQ ID NO: 2), respectively. See, e.g., Example A.
Chain of human TREX1 (Q9NSU2 1-242): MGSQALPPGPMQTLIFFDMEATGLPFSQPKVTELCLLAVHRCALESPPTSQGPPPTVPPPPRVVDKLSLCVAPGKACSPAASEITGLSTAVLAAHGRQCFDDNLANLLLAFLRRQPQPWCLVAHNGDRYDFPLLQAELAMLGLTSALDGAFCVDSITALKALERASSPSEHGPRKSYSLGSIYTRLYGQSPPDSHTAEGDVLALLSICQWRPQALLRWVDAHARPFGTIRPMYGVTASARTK
(§2) For human TREX1, the nucleotide sequence of the gene construct was codon optimized for expression in the bacterial host. The sequence was incorporated into the pMAL-c5e vector (NEB) downstream of a solubility-promoting MBP (maltose binding protein) fusion partner. The fusion protein product was expressed in E. coli strain BL21 (DE3) (Millipore) and purified in a series of chromatographic steps. Initial steps were conducted using a dextrin sepharose affinity column followed by a Q-sepharose ion exchange column (both GE Healthcare). After the second column the MBP partner was removed by incubation with enterokinase (NEB). Further purification was carried out with the second application of a Q-sepharose column followed by a Superdex 75 (GE Healthcare) size exclusion column. Finally, a heparin sepharose column (GE Healthcare) was applied to remove contaminating nucleotides. Similar methods were used in the preparation of the murine TREX1 enzyme and are described in Example B set forth below.
(§3) To evaluate the effect of compounds on TREX1 activity, test compounds were serially diluted (11-point, 3-fold) from 10 mM stock solutions and delivered to 384-well low-volume assay plates in 80 nL DMSO using an acoustic dispenser. Next, 4 μL of human TREX1 (0.5 nM), or murine TREX1 (1 nM), diluted in assay buffer (20 mM Tris pH 7.5, 5 mM MgCl2, 100 μg/mL BSA, 0.002% Triton X-100, 2 mM DTT), was added to the assay plate. After incubating for 30 minutes, 4 μL of labeled DNA oligonucleotide (500 nM) in assay buffer was added to initiate TREX1 exonuclease activity. The reaction was allowed to proceed for 45 minutes at room temperature prior to the addition of 4 μL of 150 mM EDTA to halt TREX1 activity. Assay plates were equilibrated for an additional 30 minutes and read on an EnVision Plate Reader (Perkin Elmer) to measure fluorescence emission at 535 nm following excitation at 485 nm. Fluorescence was plotted as a function of log molar compound concentration and fit to four-parameter dose-response equation to determine compound IC50.

The next experiment has as its target murine TREX1 (Mus musculus (Mouse), UniProt Q91XB0). Description: TREX1 Exonuclease Assay (murine enzyme). It counts as biochemical. As to conditions: murine TREX1 1 nM, FAM/BHQ1-labeled DNA oligonucleotide. As to the method:
as §1, §2, §3

In experiment [1] the test system is THP1 Dual cells (ISRE Lucia reporter, cGAS-STING pathway). The experiment can be described thus: THP1 monocyte assay, ISRE Lucia luciferase reporter. As to conditions: 48 hours, luciferase signal versus control wells without compound. It counts as cell-based, human. The text has this: Example C is a cell-based assay for TREX1 inhibitors using THP1 Dual™ cells (Invivogen), a human monocyte cell line that has stable integration of an Interferon Stimulated Response Element (ISRE) Lucia reporter gene. The Lucia gene encodes a secreted luciferase reporter protein, under the control of an ISG54 minimal promoter in conjunction with five IFN-stimulated response elements. Activation of the cGAS-STING pathway in THP1 Dual™ cells leads to enhanced luciferase secretion and increased luminescence.
A cell-based assay was established using THP1 Dual™ cells (Invivogen), a human monocyte cell line that has stable integration of an Interferon Stimulated Response Element (ISRE) Lucia reporter gene. The Lucia gene encodes a secreted luciferase reporter protein, under the control of an ISG54 minimal promoter in conjunction with five IFN-stimulated response elements. Activation of the cGAS-STING pathway in these cells leads to enhanced luciferase secretion. The assay was conducted in standard 384-well white tissue culture plates. Cells (25,000 in 25 μL RPMI 1640 containing 10% Heat-Inactivated FBS, 1× Glutagro, 10 mM HEPES, 1 mM sodium pyruvate, 1× Pen/Strep, 100 μg/mL Normocin, 100 μg/mL Zeocin, 10 μg/mL Blasticidin) were added to the plate followed by 25 μL of compound in the same media+0.2% DMSO. The assay was incubated for 48 hours at 37° C. in 5% CO2. An aliquot of 5 μl was removed to combine with 12.5 μL of the luciferase detection reagent, QUANTI-Luc™ Gold (Invivogen) in a white 384-well plate. The luminescent signal was then read using an EnVision plate reader (Perkin Elmer). The fold activation was calculated by dividing the signal in wells containing test compound by the signal in the control wells without compound (see Table 7).
For orientation: A reporter such as luciferase makes a cellular process visible.

Experiment [2] deals with interferon stimulated genes (ISGs) in THP1 Dual cells. Description: RT-qPCR assay of interferon stimulated gene expression. It counts as cell-based, human. As to conditions: substance alone, 24 hours, normalized to GAPDH, unstimulated control = 1. From the text:
Example D is a cell based assay that measures the increase in the expression of interferon stimulated genes (ISG) by RT-qPCR that are induced by TREX1 inhibitors when THP1 Dual™ cells are transfected with double-stranded DNA. The double stranded DNA used to transfect cells was VACV-70 (Invivogen), a 70 base pair oligonucleotide containing viral DNA motifs (Unterholzner L. et al., 2010. IFI16 is an innate immune sensor for intracellular DNA. Nat Immunol. 11(11):997-1004). Activation of cGAS-STING pathway in THP1 Dual™ cells increases the expression of ISGs.
The RT-qPCR assay was used to assess the ability of TREX1 inhibitors to enhance the expression of interferon stimulated genes (ISGs) in cells transfected with double-stranded DNA. The double stranded DNA used to transfect cells was VACV-70 (Invivogen), a 70 base pair oligonucleotide containing viral DNA motifs (Unterholzner L. et al., 2010. IFI16 is an innate immune sensor for intracellular DNA. Nat Immunol. 11(11):997-1004). Human THP1 Dual™ cells (Invivogen), were treated with test compound in the presence or absence of 1,200 ng/mL VACV-70, or with VACV-70 alone, for 24 hours. Cells were harvested by centrifugation and washed with phosphate buffer saline. Total RNA was isolated using Qiagen RNeasy mini kit. Genomic DNA was degraded using Thermo Scientific DNase 1 kit. Total RNA was quantified using a Nanodrop spectrophotometer. Using equal amounts of RNA, cDNA was synthesized using Invitrogen Superstrand III First Strand synthesis kit. Target and reference gene expression levels were determined by RT-qPCR using TaqMan gene expression assays and a Stratagene Mx3005P QPCR system (all reagents were from TaqMan, Applied Biosystems). Data were analyzed by the Comparative CT method. GAPDH was used for normalization. Target genes that were analyzed included interferon stimulated genes (INF-β, CXCL10, IFIT1, IFIT2, IFIT3, IFI44, and IFI44L).
In general terms: Real-time PCR tracks product formation cycle by cycle.

Chain of murine TREX1 (Q91XB0 1-242): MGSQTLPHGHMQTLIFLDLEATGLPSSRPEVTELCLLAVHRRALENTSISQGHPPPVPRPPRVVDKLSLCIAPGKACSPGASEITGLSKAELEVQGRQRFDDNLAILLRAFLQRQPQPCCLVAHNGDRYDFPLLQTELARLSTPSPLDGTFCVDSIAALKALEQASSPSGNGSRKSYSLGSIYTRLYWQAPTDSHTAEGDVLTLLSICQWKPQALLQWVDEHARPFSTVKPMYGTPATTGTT

A word on the IC50: it is the concentration needed to halve the response being measured. Turning to `NC(=O)CC[C@H](C(=O)NCc1ccc(Cl)c(Cl)c1)N1CCC(CCc2ccccc2)N2C[C@H](N)C[C@H]2C1=O` (some centres unmarked) [Example 16], on human TREX1, the IC50 is less than 1000 nM. The compound further showed an IC50 against murine TREX1 of less than 1000 nM. The “Fold activation @ 10 μM” value in experiment [1] was determined as 4. In experiment [2], the CXCL10 expression was 2, the IFI44L expression stood at 15, the IFI44 expression is 14 and the IFIT1 expression stood at 11. In experiment [2], this compound returned an IFIT2 expression of 41, an IFIT3 expression of 25 and an IFN-β expression of 6.

`N[C@@H]1C[C@H]2C(=O)N([C@H](CCc3nnn[nH]3)C(=O)NCc3ccc(Cl)c(Cl)c3)CCC(CCc3ccccc3)N2C1` (some centres unmarked) [Example 36] came in with an IC50 against human TREX1 of less than 1000 nM. This compound registered a half-maximal inhibitory concentration (IC50) against murine TREX1 of less than 1000 nM. The “Fold activation @ 10 μM” value in experiment [1] was 7. Also, in experiment [2], the CXCL10 expression is recorded as 2, the IFI44L expression amounted to 16, the IFI44 expression came to 20 and the IFIT1 expression is listed as 8. In addition, in experiment [2], the IFIT2 expression is given as 26, the IFIT3 expression is 16 and the IFN-β expression stood at 3.

These data come from patent US11306098B2, “Substituted pyrrolo[1,2-a]pyrazines and pyrrolo[1,2-a][1,4]diazepines as TREX1 inhibitors” (VENENUM BIODESIGN, LLC, priority 2019, dated 2022).
